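Each compound was tested at five concentrations against cells in 96-well plates for 48 hours. At the GI50, growth is halved.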 The source made the active and inactive calls. Rule as the data show it: active = GI50 up to about 1.1 µM and inactive = higher.
Columns and labels:
Experiment in all cases: NCI-60 cell line screen, 48 h
[1] = tested on: A549
[2] = tested on: CCRF-CEM
[3] = tested on: COLO 205
[4] = tested on: HCC 2998
[5] = tested on: HOP-62
[6] = tested on: HOP-92
[7] = tested on: HT-29
[8] = tested on: IGROV-1
[9] = tested on: LOX IMVI
[10] = tested on: NCI-H460
[11] = tested on: OVCAR-3
[12] = tested on: OVCAR-8
[13] = tested on: SF-295
[14] = tested on: SK-MEL-5
[15] = tested on: SK-OV-3
[16] = tested on: SW-620
[17] = tested on: U-251
[18] = tested on: UACC-257
[19] = tested on: UACC-62
[20] = tested on: UO-31

SMILES | GI50 [1] | GI50 [2] | GI50 [3] | GI50 [4] | GI50 [5] | GI50 [6] | GI50 [7] | GI50 [8] | GI50 [9] | GI50 [10] | GI50 [11] | GI50 [12] | GI50 [13] | GI50 [14] | GI50 [15] | GI50 [16] | GI50 [17] | GI50 [18] | GI50 [19] | GI50 [20]
O=C1Nc2ccccc2/C1=N/NC(=S)Nc1ccccc1Cl | 3.58 µM (inactive) | 0.724 µM (active) | 3.63 µM (inactive) | 34.7 µM (inactive) | 11.5 µM (inactive) | 3.7 µM (inactive) | 5.41 µM (inactive) | 3.33 µM (inactive) | 2.52 µM (inactive) | 0.735 µM (active) | 2.16 µM (inactive) | 2.23 µM (inactive) | 1.29 µM (inactive) | 2.89 µM (inactive) | 10.7 µM (inactive) | 5.9 µM (inactive) | 3.56 µM (inactive) | 2 µM (inactive) | 3.94 µM (inactive) | 3.32 µM (inactive)
COc1cc2c3c(c4ccc(O)cc4c2cc1OC)[C@@H](O)[C@@H]1CCCN1C3 | < 0.001 µM (active) | < 0.001 µM (active) | 0.0178 µM (active) | < 0.001 µM (active) | < 0.001 µM (active) | 0.0011 µM (active) | 0.00233 µM (active) | < 0.001 µM (active) | < 0.001 µM (active) | < 0.001 µM (active) | 0.00122 µM (active) | < 0.001 µM (active) | < 0.001 µM (active) | < 0.001 µM (active) | 0.00105 µM (active) | < 0.001 µM (active) | < 0.001 µM (active) | 0.00121 µM (active) | 0.00105 µM (active) | < 0.001 µM (active)
COC(=O)C1=COC2OC3CC1C2C(C)O3 (centres undefined) | > 100 µM (inactive) | > 100 µM (inactive) | > 100 µM (inactive) | > 100 µM (inactive) | > 100 µM (inactive) | > 100 µM (inactive) | > 100 µM (inactive) | > 100 µM (inactive) | > 100 µM (inactive) | > 100 µM (inactive) | > 100 µM (inactive) | > 100 µM (inactive) | > 100 µM (inactive) | > 100 µM (inactive) | > 100 µM (inactive) | > 100 µM (inactive) | > 100 µM (inactive) | > 100 µM (inactive) | > 100 µM (inactive) | > 100 µM (inactive)
CN1C(=O)C2C=C3CCCCC3=CC2N(C)C1=O (centres undefined) | > 100 µM (inactive) | > 100 µM (inactive) | > 100 µM (inactive) | > 100 µM (inactive) | > 100 µM (inactive) | 99.1 µM (inactive) | > 100 µM (inactive) | > 100 µM (inactive) | > 100 µM (inactive) | > 100 µM (inactive) | > 100 µM (inactive) | > 100 µM (inactive) | > 100 µM (inactive) | > 100 µM (inactive) | > 100 µM (inactive) | > 100 µM (inactive) | > 100 µM (inactive) | > 100 µM (inactive) | > 100 µM (inactive) | > 100 µM (inactive)
COCO[C@@H]1C[C@H]2C(O)Nc3ccccc3C(=O)N2C1 (some centres undefined) | > 100 µM (inactive) | > 100 µM (inactive) | > 100 µM (inactive) | > 100 µM (inactive) | > 100 µM (inactive) | > 100 µM (inactive) | > 100 µM (inactive) | > 100 µM (inactive) | > 100 µM (inactive) | > 100 µM (inactive) | > 100 µM (inactive) | > 100 µM (inactive) | > 100 µM (inactive) | > 100 µM (inactive) | > 100 µM (inactive) | > 100 µM (inactive) | > 100 µM (inactive) | > 100 µM (inactive) | > 100 µM (inactive) | > 100 µM (inactive)
N#C/C(=C\c1ccc(C(O)P(=O)(O)O)cc1)C(N)=O (centres undefined) | > 100 µM (inactive) | 9.93 µM (inactive) | > 100 µM (inactive) | 3.66 µM (inactive) | 73.3 µM (inactive) | > 100 µM (inactive) | > 100 µM (inactive) | > 100 µM (inactive) | > 100 µM (inactive) | 6.44 µM (inactive) | > 100 µM (inactive) | > 100 µM (inactive) | > 100 µM (inactive) | > 100 µM (inactive) | > 100 µM (inactive) | > 100 µM (inactive) | 60.5 µM (inactive) | > 100 µM (inactive) | 7.83 µM (inactive) | > 100 µM (inactive)
COC(=O)[C@@H](NC1(c2ccccc2)c2ccccc2-c2ccccc21)[C@@H](C(=O)OC)N(NC(=O)OCc1ccccc1)C(=O)OCc1ccccc1.COC(=O)[C@@H](NC1(c2ccccc2)c2ccccc2-c2ccccc21)[C@H](C(=O)OC)N(NC(=O)OCc1ccccc1)C(=O)OCc1ccccc1 | > 100 µM (inactive) | > 100 µM (inactive) | > 100 µM (inactive) | 86.9 µM (inactive) | > 100 µM (inactive) | > 100 µM (inactive) | > 100 µM (inactive) | > 100 µM (inactive) | > 100 µM (inactive) | > 100 µM (inactive) | > 100 µM (inactive) | > 100 µM (inactive) | > 100 µM (inactive) | > 100 µM (inactive) | > 100 µM (inactive) | > 100 µM (inactive) | 33.8 µM (inactive) | > 100 µM (inactive) | > 100 µM (inactive) | > 100 µM (inactive)
C=C(Nc1ccc([N+](=O)[O-])cc1[N+](=O)[O-])c1c/c(=N\NC(N)=S)c2ccccc2o1 | > 100 µM (inactive) | 41.9 µM (inactive) | 33.5 µM (inactive) | 95.9 µM (inactive) | 70 µM (inactive) | 29 µM (inactive) | 87.7 µM (inactive) | 36.1 µM (inactive) | > 100 µM (inactive) | > 100 µM (inactive) | 22.7 µM (inactive) | 41.7 µM (inactive) | 39.5 µM (inactive) | 37.7 µM (inactive) | 35.7 µM (inactive) | 39.8 µM (inactive) | 61.1 µM (inactive) | 91.6 µM (inactive) | > 100 µM (inactive) | 29.1 µM (inactive)
COc1cc[n+](C)cc1 | > 100 µM (inactive) | > 100 µM (inactive) | > 100 µM (inactive) | > 100 µM (inactive) | > 100 µM (inactive) | > 100 µM (inactive) | > 100 µM (inactive) | > 100 µM (inactive) | > 100 µM (inactive) | > 100 µM (inactive) | > 100 µM (inactive) | > 100 µM (inactive) | > 100 µM (inactive) | > 100 µM (inactive) | > 100 µM (inactive) | > 100 µM (inactive) | > 100 µM (inactive) | > 100 µM (inactive) | > 100 µM (inactive) | > 100 µM (inactive)
Nc1nccc2c1ncn2[C@H]1C[C@H](O)[C@@H](CO)O1 | – | > 100 µM (inactive) | > 100 µM (inactive) | > 100 µM (inactive) | > 100 µM (inactive) | > 100 µM (inactive) | > 100 µM (inactive) | > 100 µM (inactive) | > 100 µM (inactive) | > 100 µM (inactive) | > 100 µM (inactive) | > 100 µM (inactive) | > 100 µM (inactive) | > 100 µM (inactive) | > 100 µM (inactive) | > 100 µM (inactive) | > 100 µM (inactive) | > 100 µM (inactive) | > 100 µM (inactive) | > 100 µM (inactive)
COc1ccc2cc(CNCCCCCCCCCCCCNCc3ccc4cc(OC)ccc4c3)ccc2c1 | 24.3 µM (inactive) | 9.46 µM (inactive) | 16.4 µM (inactive) | 13.5 µM (inactive) | 19.4 µM (inactive) | 21.7 µM (inactive) | 8.49 µM (inactive) | 15.8 µM (inactive) | 15 µM (inactive) | 17.3 µM (inactive) | 21.2 µM (inactive) | 15 µM (inactive) | 19.5 µM (inactive) | 22.6 µM (inactive) | 18.7 µM (inactive) | 20.7 µM (inactive) | 20.8 µM (inactive) | 21 µM (inactive) | 21.2 µM (inactive) | 20.9 µM (inactive)

Reference: ChEMBL document CHEMBL1201862, “PubChem BioAssay data set” (2004)
